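Where inhibition never reached the appropriate level, the endpoint shown equals the highest concentration tested. Otherwise, values were interpolated linearly from a five-concentration, 48-hour dose response in 96-well plates. At the GI50, growth is halved.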 The source made the active and inactive calls. No stated cut-off is given here; in the data, active = GI50 up to about 1.1 µM and inactive = higher.
What was measured:
Experiment in all cases: growth of human tumour cells (NCI), 48 h
NCI-H226 = tested on: NCI-H226
LOX IMVI = tested on: LOX IMVI
HOP-62 = tested on: HOP-62
A549 = tested on: A549
NCI-H23 = tested on: NCI-H23
OVCAR-8 = tested on: OVCAR-8
A498 = tested on: A498
K562 = tested on: K562
SF-268 = tested on: SF-268
HOP-18 = tested on: HOP-18
SNB-78 = tested on: SNB-78
M14 = tested on: M14
HCC 2998 = tested on: HCC 2998
DLD-1 = tested on: DLD-1
786-0 = tested on: 786-0
TK-10 = tested on: TK-10
ACHN = tested on: ACHN
MOLT-4 = tested on: MOLT-4
LXFL 529 = tested on: LXFL 529
HL-60 = tested on: HL-60
SF-295 = tested on: SF-295
DMS-114 = tested on: DMS-114
SK-MEL-5 = tested on: SK-MEL-5
DMS-273 = tested on: DMS-273
IGROV-1 = tested on: IGROV-1
SK-MEL-2 = tested on: SK-MEL-2
NCI-H460 = tested on: NCI-H460
Malme-3M = tested on: Malme-3M
SNB-75 = tested on: SNB-75
HCT-116 = tested on: HCT-116
KM12 = tested on: KM12
UO-31 = tested on: UO-31
SN12C = tested on: SN12C
U-251 = tested on: U-251
SK-OV-3 = tested on: SK-OV-3
SW-620 = tested on: SW-620
EKVX = tested on: EKVX
CAKI-1 = tested on: CAKI-1
SNB-19 = tested on: SNB-19
KM-20L2 = tested on: KM-20L2
OVCAR-3 = tested on: OVCAR-3
HT-29 = tested on: HT-29
CCRF-CEM = tested on: CCRF-CEM
UACC-62 = tested on: UACC-62
NCI-H522 = tested on: NCI-H522
HCT-15 = tested on: HCT-15
RPMI-8226 = tested on: RPMI-8226
OVCAR-4 = tested on: OVCAR-4
UACC-257 = tested on: UACC-257
OVCAR-5 = tested on: OVCAR-5
M19-MEL = tested on: M19-MEL
COLO 205 = tested on: COLO 205
SK-MEL-28 = tested on: SK-MEL-28
PC-3 = tested on: PC-3
RXF 393 = tested on: RXF 393
NCI/ADR-RES = tested on: NCI/ADR-RES
T47D = tested on: T47D
SF-539 = tested on: SF-539
DU-145 = tested on: DU-145
Hs-578T = tested on: Hs-578T
HOP-92 = tested on: HOP-92
MDA-MB-435 = tested on: MDA-MB-435
MDA-MB-231 = tested on: MDA-MB-231
BT-549 = tested on: BT-549
MDA-N = tested on: MDA-N
MCF7 = tested on: MCF7
SR = tested on: SR

`COC(=O)[C@@]12C(=O)C=CC(=O)C1C1C(=CC2C)OC2OC3(CCCCC3)OC21` (some centres undefined) was tested, and the GI50 (NCI-H226) was 18.8 µM (inactive), the GI50 (LOX IMVI) was 20.5 µM (inactive) and the GI50 (HOP-62) was 19.9 µM (inactive). The GI50 (A549) was 19.3 µM (inactive), the GI50 (NCI-H23) was 19.4 µM (inactive) and the GI50 (OVCAR-8) was 16.4 µM (inactive). For the same compound, the GI50 (A498) was 17.9 µM (inactive), the GI50 (K562) was 6.9 µM (inactive) and the GI50 (SF-268) was 20.9 µM (inactive). For the same compound, the GI50 (HOP-18) was 20.2 µM (inactive), the GI50 (SNB-78) was 20.6 µM (inactive) and the GI50 (M14) was 17.8 µM (inactive). The GI50 (HCC 2998) was 14.5 µM (inactive), the GI50 (DLD-1) was 18.5 µM (inactive) and the GI50 (786-0) was 17.5 µM (inactive). For the same compound, the GI50 (TK-10) was 17.3 µM (inactive), the GI50 (ACHN) was 16.9 µM (inactive) and the GI50 (MOLT-4) was 6.11 µM (inactive). The GI50 (LXFL 529) was 13.5 µM (inactive), the GI50 (HL-60) was 3.85 µM (inactive) and the GI50 (SF-295) was 18.9 µM (inactive). For the same compound, the GI50 (DMS-114) was 15.7 µM (inactive), the GI50 (SK-MEL-5) was 19.3 µM (inactive) and the GI50 (DMS-273) was 19 µM (inactive). For the same compound, the GI50 (IGROV-1) was 18.1 µM (inactive), the GI50 (SK-MEL-2) was 19 µM (inactive) and the GI50 (NCI-H460) was 18.8 µM (inactive). The GI50 (Malme-3M) was 20.2 µM (inactive), the GI50 (SNB-75) was 18.9 µM (inactive) and the GI50 (HCT-116) was 15.9 µM (inactive). The GI50 (KM12) was 20 µM (inactive), the GI50 (UO-31) was 16.8 µM (inactive) and the GI50 (SN12C) was 17.7 µM (inactive). For the same compound, the GI50 (U-251) was 17.7 µM (inactive), the GI50 (SK-OV-3) was 18.6 µM (inactive) and the GI50 (SW-620) was 19.3 µM (inactive). The GI50 (EKVX) was 19.7 µM (inactive), the GI50 (CAKI-1) was 18.2 µM (inactive) and the GI50 (SNB-19) was 17.7 µM (inactive). For the same compound, the GI50 (KM-20L2) was 20.5 µM (inactive), the GI50 (OVCAR-3) was 19.6 µM (inactive) and the GI50 (HT-29) was 21.6 µM (inactive). The GI50 (CCRF-CEM) was 2.52 µM (inactive), the GI50 (UACC-62) was 15.2 µM (inactive) and the GI50 (NCI-H522) was 9.71 µM (inactive). For the same compound, the GI50 (HCT-15) was 13.2 µM, the GI50 (RPMI-8226) was 4.89 µM (inactive) and the GI50 (OVCAR-4) was 16.7 µM (inactive). For the same compound, the GI50 (UACC-257) was 17.1 µM (inactive), the GI50 (OVCAR-5) was 14.3 µM (inactive) and the GI50 (M19-MEL) was 19.2 µM (inactive). The GI50 (COLO 205) was 14.2 µM (inactive) and the GI50 (SK-MEL-28) was 16.9 µM (inactive).

For `Cc1c2ccc3ccccc3c2c[n+]2ccccc12`, the GI50 (NCI-H226) was 4.67 µM (inactive), the GI50 (PC-3) was 26.7 µM (inactive) and the GI50 (LOX IMVI) was 42.9 µM (inactive). For the same compound, the GI50 (HOP-62) was 7.93 µM (inactive), the GI50 (A549) was 3.72 µM (inactive) and the GI50 (NCI-H23) was 4.91 µM (inactive). The GI50 (RXF 393) was 22.3 µM (inactive), the GI50 (OVCAR-8) was 4.5 µM (inactive) and the GI50 (A498) was > 47.5 µM (inactive). For the same compound, the GI50 (NCI/ADR-RES) was 55.2 µM (inactive), the GI50 (K562) was 10.7 µM (inactive) and the GI50 (SF-268) was 1.36 µM (inactive). For the same compound, the GI50 (SNB-78) was 28.8 µM (inactive), the GI50 (M14) was 15.8 µM (inactive) and the GI50 (HCC 2998) was 4.92 µM (inactive). For the same compound, the GI50 (DLD-1) was 24 µM (inactive), the GI50 (T47D) was 1.36 µM (inactive) and the GI50 (786-0) was 2.37 µM (inactive). The GI50 (TK-10) was 35.7 µM (inactive), the GI50 (ACHN) was 56.5 µM (inactive) and the GI50 (MOLT-4) was 4.66 µM (inactive). The GI50 (LXFL 529) was 5.36 µM (inactive), the GI50 (HL-60) was 33.4 µM (inactive) and the GI50 (SF-295) was 5.89 µM (inactive). The GI50 (DMS-114) was 4.35 µM (inactive), the GI50 (SK-MEL-5) was 6.79 µM (inactive) and the GI50 (DMS-273) was 16.2 µM (inactive). The GI50 (IGROV-1) was 43.5 µM (inactive), the GI50 (SK-MEL-2) was 11.6 µM (inactive) and the GI50 (NCI-H460) was 10.7 µM (inactive). For the same compound, the GI50 (Malme-3M) was 1.56 µM (inactive), the GI50 (SNB-75) was 6.41 µM (inactive) and the GI50 (HCT-116) was 17.1 µM (inactive). For the same compound, the GI50 (KM12) was 1.13 µM (inactive), the GI50 (UO-31) was 17.5 µM (inactive) and the GI50 (SF-539) was 8.41 µM (inactive). The GI50 (DU-145) was 11.4 µM (inactive), the GI50 (SN12C) was 2.94 µM (inactive) and the GI50 (Hs-578T) was 2.26 µM (inactive). The GI50 (HOP-92) was 13.5 µM (inactive), the GI50 (MDA-MB-435) was 12.6 µM (inactive) and the GI50 (MDA-MB-231) was 21.4 µM (inactive). For the same compound, the GI50 (U-251) was 1.66 µM (inactive), the GI50 (SK-OV-3) was 16.9 µM (inactive) and the GI50 (BT-549) was 2.96 µM (inactive). The GI50 (SW-620) was 4.2 µM (inactive), the GI50 (EKVX) was 4.91 µM (inactive) and the GI50 (CAKI-1) was 53.6 µM (inactive). The GI50 (MDA-N) was 6.71 µM (inactive), the GI50 (SNB-19) was 2.64 µM (inactive) and the GI50 (KM-20L2) was 19.7 µM (inactive). For the same compound, the GI50 (OVCAR-3) was 5.85 µM (inactive), the GI50 (HT-29) was 27.5 µM (inactive) and the GI50 (CCRF-CEM) was 6.59 µM (inactive). The GI50 (UACC-62) was 13.6 µM (inactive), the GI50 (MCF7) was 10.4 µM (inactive) and the GI50 (SR) was 2.96 µM (inactive). The GI50 (NCI-H522) was 3.41 µM (inactive), the GI50 (HCT-15) was 59.2 µM and the GI50 (RPMI-8226) was 19.5 µM (inactive). The GI50 (OVCAR-4) was 12 µM (inactive), the GI50 (UACC-257) was 7.62 µM (inactive) and the GI50 (OVCAR-5) was 61.9 µM (inactive). The GI50 (M19-MEL) was 4.48 µM (inactive), the GI50 (COLO 205) was 2.82 µM (inactive) and the GI50 (SK-MEL-28) was 9.55 µM (inactive).

From ChEMBL document CHEMBL1201862, “PubChem BioAssay data set” (2004)
